Numbers after ± are expanded uncertainties.
Conditions: 101.33 kPa, Liquid, Vibrating tube method

| SMILES | mass density (298.15 K) [kg/m3] | mass density (308.15 K) [kg/m3] | mass density (318.15 K) [kg/m3] | mass density (328.15 K) [kg/m3] | mass density (338.15 K) [kg/m3] | mass density (348.15 K) [kg/m3] |
| --- | --- | --- | --- | --- | --- | --- |
| CCCCO [butan-1-ol] | 798.06 ± 0.15 | – | – | – | – | – |
| CCCCCCn1cc[n+](C)c1.N#C[B-](C#N)(C#N)C#N [1-hexyl-3-methylimidazolium tetracyanoborate] | 983.03 ± 0.24 | – | – | – | – | – |
| CCCCCCCCCCCCCC[P+](CCCCCC)(CCCCCC)CCCCCC.N#C[B-](C#N)(C#N)C#N [trihexyltetradecylphosphonium tetracyanoborate] | 891.05 ± 0.23 | 884.97 ± 0.23 | 879.06 ± 0.23 | 873.16 ± 0.23 | 867.25 ± 0.24 | 861.36 ± 0.24 |
| CCCCCCCCCCn1cc[n+](C)c1.N#C[B-](C#N)(C#N)C#N [1-decyl-3-methyl-1H-imidazolium tetracyanoborate] | 955.57 ± 0.12 | – | – | – | – | – |
